According to ChEMBL document CHEMBL5634143, “Development of teixobactin analogues containing hydrophobic, non-proteogenic amino acids that are highly potent against multidrug-resistant bacteria and biofilms” (Eur J Med Chem, 2023):
Converted amounts (≈) assume the structure as drawn. The source made the active and inactive calls. The rule behind the calls is not given here.

Legend:
Staphylococcus aureus [1] = assay: Antibacterial activity against Staphylococcus aureus 4299 assessed as inhibition of bacterial growth; type: functional
[2] = system: Staphylococcus saprophyticus; assay: Antibacterial activity against Staphylococcus saprophyticus ATCC 49453 assessed as inhibition of bacterial growth; type: functional
Staphylococcus aureus [3] = assay: Antibacterial activity against methicilin-resistant Staphylococcus aureus 42412 assessed as inhibition of bacterial growth; type: functional
[4] = Hemolytic activity in rabbit erythrocytes assessed as hemolysis at 512 microg/ml relative to control; type: toxicity, cell-based, Oryctolagus cuniculus, Erythrocyte; settings: at 512 µg/mL, read-out: Activity
Pseudomonas aeruginosa [5] = assay: Antibacterial activity against Pseudomonas aeruginosa ATCC 9027 assessed as inhibition of bacterial growth; type: functional
Staphylococcus aureus [6] = assay: Bactericidal activity against methicilin-resistant Staphylococcus aureus 21455 assessed as reduction in bacterial colony forming unit at 16 times MIC observed after 24 hrs by time-kill kinetic assay; type: functional, organism-based
Staphylococcus aureus [7] = assay: Antibacterial activity against Staphylococcus aureus 29213 assessed as inhibition of bacterial growth; type: functional
[8] = system: Staphylococcus epidermidis; assay: Antibacterial activity against Staphylococcus epidermidis 12228 assessed as inhibition of bacterial growth; type: functional
Enterococcus faecium [9] = assay: Antibacterial activity against Vancomycin-resistant Enterococcus […] ATCC 29212 assessed as inhibition of bacterial growth; type: functional; settings: Enterococcus faecalis
[10] = system: Staphylococcus saprophyticus; assay: Antibacterial activity against Staphylococcus saprophyticus ATCC 15305 assessed as inhibition of bacterial growth; type: functional
Staphylococcus aureus [11] = assay: Antibacterial activity against Staphylococcus aureus 15981 assessed as inhibition of biofilm formation at 10 ug/ml incubated for 5 hrs by confocal microscopic analysis; type: functional, organism-based; settings: dose 10.0 µg/ml
Cell membrane [12] = assay: Induction of cytoplasmic membrane depolarization in methicilin-resistant Staphylococcus aureus 21455 at 8 times MIC by DiSC3(5) dye-based fluorescence assay
Staphylococcus aureus [13] = assay: Bactericidal activity against methicilin-resistant Staphylococcus aureus 21455 assessed as inhibition of bacterial growth by time-kill kinetic assay; type: functional, organism-based
Bacillus cereus = assay: Antibacterial activity against Bacillus cereus ATCC 11788 assessed as inhibition of bacterial growth; type: functional
Enterococcus faecium [14] = assay: Antibacterial activity against Vancomycin-resistant Enterococcus […] ATCC 700802 assessed as inhibition of bacterial growth; type: functional
Staphylococcus aureus [15] = assay: Antibacterial activity against methicilin-resistant Staphylococcus aureus 1003 assessed as inhibition of bacterial growth; type: functional
Pseudomonas aeruginosa [16] = assay: Antibacterial activity against Pseudomonas aeruginosa DSMZ 1117 assessed as inhibition of bacterial growth; type: functional
Cell membrane [17] = assay: Induction of cell membrane […] in methicilin-resistant Staphylococcus aureus 21455 assessed as increase in fluorescence intensity at 8 times MIC by SYTOX green dye based fluorescence analysis; type: cell membranes
[18] = system: Staphylococcus epidermidis; assay: Antibacterial activity against Staphylococcus epidermidis 1457 assessed as inhibition of biofilm formation at 10 ug/ml incubated for 5 hrs by confocal microscopic analysis; type: functional, organism-based; settings: dose 10.0 µg/ml
Cell membrane [19] = assay: Induction of cell membrane […] in methicilin-resistant Staphylococcus aureus 21455 assessed as increase in fluorescence intensity at 16 times MIC by SYTOX green dye based fluorescence analysis; type: cell membranes
Staphylococcus aureus [20] = assay: Bactericidal activity against methicilin-resistant Staphylococcus aureus 21455 assessed as reduction in bacterial colony forming unit at 16 times MIC observed after 8 hrs by time-kill kinetic assay; type: functional, organism-based
[21] = system: Staphylococcus saprophyticus; assay: Antibacterial activity against Staphylococcus saprophyticus ATCC 49907 assessed as inhibition of bacterial growth; type: functional
Cell membrane [22] = assay: Induction of cytoplasmic membrane depolarization in methicilin-resistant Staphylococcus aureus 21455 at 16 times MIC by DiSC3(5) dye-based fluorescence assay
Bacillus subtilis = assay: Antibacterial activity against Bacillus subtilis ATCC 6633 assessed as inhibition of bacterial growth; type: functional
Enterococcus faecium [23] = assay: Antibacterial activity against Vancomycin-resistant Enterococcus faecium 1014 assessed as inhibition of bacterial growth; type: functional
Staphylococcus aureus [24] = assay: Antibacterial activity against methicilin-resistant Staphylococcus aureus ATCC 700699 assessed as inhibition of bacterial growth; type: functional
Staphylococcus aureus [25] = assay: Antibacterial activity against methicilin-resistant Staphylococcus aureus 21455 assessed as inhibition of bacterial growth; type: functional
[26] = system: Staphylococcus saprophyticus; assay: Antibacterial activity against Staphylococcus saprophyticus ATCC BAA 750 assessed as inhibition of bacterial growth; type: functional
[27] = Hemolytic activity in rabbit erythrocytes assessed as hemolysis at 256 microg/ml relative to control; type: toxicity, cell-based, Oryctolagus cuniculus, Erythrocyte; settings: at 256 µg/mL, read-out: Activity
Staphylococcus aureus [28] = assay: Bactericidal activity against methicilin-resistant Staphylococcus aureus 21455 assessed as reduction in bacterial colony forming unit at 16 times MIC observed after 2 hrs by time-kill kinetic assay; type: functional
Staphylococcus aureus [29] = assay: Bactericidal activity against methicilin-resistant Staphylococcus aureus 21455 assessed as reduction in bacterial viability at 2 times MIC observed after 4 hrs by time-kill kinetic assay relative to control; type: functional
[30] = Hemolytic activity in rabbit erythrocytes assessed as hemolysis at 64 microg/ml relative to control; type: toxicity, cell-based, Oryctolagus cuniculus, Erythrocyte; settings: at 64 µg/mL, read-out: Activity

SMILES | MIC (Staphylococcus aureus [1]) [µg/mL] | MIC [2] [µg/mL] | MIC (Staphylococcus aureus [3]) [µg/mL] | MIC (Staphylococcus aureus [7]) [µg/mL] | MIC [8] [µg/mL] | MIC (Enterococcus faecium [9]) [µg/mL] | MIC [10] [µg/mL] | Activity (Staphylococcus aureus [11]) | Activity (Cell membrane [12]) | Activity (Staphylococcus aureus [13]) | MIC (Bacillus cereus) [µg/mL] | MIC (Enterococcus faecium [14]) [µg/mL] | MIC (Staphylococcus aureus [15]) [µg/mL] | Activity (Cell membrane [17]) | Activity [18] | Activity (Cell membrane [19]) | MIC [21] [µg/mL] | Activity (Cell membrane [22]) | MIC (Bacillus subtilis) [µg/mL] | MIC (Enterococcus faecium [23]) [µg/mL] | also measured
CC[C@H](C)[C@H](NC(=O)[C@@H](Cc1ccccc1)NC)C(=O)N[C@@H](CO)C(=O)N[C@H](CCCNC(=N)N)C(=O)N[C@@H](C(=O)N[C@H](C(=O)N[C@@H](CO)C(=O)N[C@H]1C(=O)N[C@@H](C)C(=O)N[C@@H](C2CCCCC2)C(=O)N[C@@H]([C@@H](C)CC)C(=O)O[C@H]1C)[C@@H](C)CC)[C@@H](C)CC | 0.063 (≈ 0.0502 µM) | < 0.063 | 0.063 (≈ 0.0502 µM) | 0.063 (≈ 0.0502 µM) | 0.063 (≈ 0.0502 µM) | 0.063 (≈ 0.0502 µM) | < 0.063 | Active | inactive | Dose-Dependent Effect | 0.063 (≈ 0.0502 µM) | 0.063 (≈ 0.0502 µM) | 0.063 (≈ 0.0502 µM) | Active | Active | Active | 0.063 (≈ 0.0502 µM) | inactive | 0.063 (≈ 0.0502 µM) | 0.063 (≈ 0.0502 µM) | hemolysis at 512 microg/ml [4]: ≤ 2%; MIC (Pseudomonas aeruginosa [5]): > 32 µg/mL; Activity (Staphylococcus aureus [6]): Active; MIC (Pseudomonas aeruginosa [16]): > 32 µg/mL; Activity (Staphylococcus aureus [20]): Active; MIC (Staphylococcus aureus [24]): 0.063 µg/mL (≈ 0.0502 µM); MIC (Staphylococcus aureus [25]): 0.25 µg/mL (≈ 0.199 µM); MIC [26]: 0.063 µg/mL (≈ 0.0502 µM)
CC[C@H](C)[C@H](NC(=O)[C@@H](Cc1ccccc1)NC)C(=O)N[C@@H](CCCNC(=N)N)C(=O)N[C@H](CCCNC(=N)N)C(=O)N[C@@H](C(=O)N[C@H](C(=O)N[C@@H](CO)C(=O)N[C@H]1C(=O)N[C@@H](CCCNC(=N)N)C(=O)N[C@@H](C2CCCCC2)C(=O)N[C@@H]([C@@H](C)CC)C(=O)O[C@H]1C)[C@@H](C)CC)[C@@H](C)CC | 1 (≈ 0.709 µM) | 0.063 (≈ 0.0447 µM) | 1 (≈ 0.709 µM) | 0.5 (≈ 0.355 µM) | 0.063 (≈ 0.0447 µM) | 2 (≈ 1.42 µM) | < 0.063 |  | Active | Dose-Dependent Effect | 0.5 (≈ 0.355 µM) | 4 (≈ 2.84 µM) | 1 (≈ 0.709 µM) | 65.5% |  | 70.2% | 0.063 (≈ 0.0447 µM) | Active | 0.063 (≈ 0.0447 µM) | 2 (≈ 1.42 µM) | hemolysis at 256 microg/ml [27]: 25%; Activity (Staphylococcus aureus [28]): >=3 log10CFU; Activity (Staphylococcus aureus [29]): >=99.9%; hemolysis at 64 microg/ml [30]: 5.4%; MIC (Staphylococcus aureus [24]): 1 µg/mL (≈ 0.709 µM); MIC (Staphylococcus aureus [25]): 2 µg/mL (≈ 1.42 µM); MIC [26]: < 0.063 µg/mL
CN[C@H](CC(C)C)C(=O)N[C@H]1C(=O)N[C@@H](CC(N)=O)C(=O)N[C@H]2C(=O)N[C@H]3C(=O)N[C@H](C(=O)N[C@H](C(=O)O)c4cc(O)cc(O)c4-c4cc3ccc4O)[C@H](O)c3ccc(c(Cl)c3)Oc3cc2cc(c3O[C@@H]2O[C@H](CO)[C@@H](O)[C@H](O)[C@H]2O[C@H]2C[C@](C)(N)[C@H](O)[C@H](C)O2)Oc2ccc(cc2Cl)[C@H]1O |  |  |  |  |  |  |  | Active |  |  |  |  |  |  | Active |  |  |  |  |  | 
CC[C@H](C)[C@H](NC(=O)[C@@H](Cc1ccccc1)NC)C(=O)N[C@@H](CCCNC(=N)N)C(=O)N[C@H](CCCNC(=N)N)C(=O)N[C@@H](C(=O)N[C@H](C(=O)N[C@@H](CO)C(=O)N[C@H]1C(=O)N[C@@H](C)C(=O)N[C@@H](C2CCCCC2)C(=O)N[C@@H]([C@@H](C)CC)C(=O)O[C@H]1C)[C@@H](C)CC)[C@@H](C)CC | 0.125 (≈ 0.0944 µM) | 0.125 (≈ 0.0944 µM) | 0.063 (≈ 0.0476 µM) | 0.063 (≈ 0.0476 µM) | 0.063 (≈ 0.0476 µM) | 2 (≈ 1.51 µM) | < 0.063 | Active | Active | Dose-Dependent Effect | 2 (≈ 1.51 µM) | 2 (≈ 1.51 µM) | 0.5 (≈ 0.377 µM) | Active | Active | Active | 0.063 (≈ 0.0476 µM) | Active | 0.063 (≈ 0.0476 µM) | 1 (≈ 0.755 µM) | hemolysis at 256 microg/ml [27]: 18%; Activity (Staphylococcus aureus [28]): >=3 log10CFU; Activity (Staphylococcus aureus [29]): >=99.9%; hemolysis at 64 microg/ml [30]: 3.7%; MIC (Staphylococcus aureus [24]): 0.25 µg/mL (≈ 0.189 µM); MIC (Staphylococcus aureus [25]): 0.25 µg/mL (≈ 0.189 µM); MIC [26]: < 0.063 µg/mL
